Assay results published in paper PMC7918738, “Microtubule Destabilizing Sulfonamides as an Alternative to Taxane-Based Chemotherapy” (International Journal of Molecular Sciences, 2021).
Converted amounts (≈) assume the structure as drawn. Like-named read-outs stand apart in the source and are kept apart here.

Key:
[1] = system: HT-29 (colon adenocarcinoma); experiment: Antiproliferative activity against CA-4-resistant HT-29 with or without verapamil (sensitivity to MDR pumps, XTT); format: cell-based, human; details: Homo sapiens, read-out: Antiproliferative Activity IC50 HT-29
Description: Detecting changes in drug potency when inhibiting MDR-mediated efflux reflect that these transporters reduce the intracellular drug concentration. HT-29 has been reported to express moderate levels of MDR1, accounting for a resistant phenotype. A comparison of the antiproliferative IC50 values of each MDS in the presence or absence of verapamil provides an estimate of the susceptibility of each compound to efflux pumps.
MCF7 (human breast carcinoma), SKOV-3 (human ovarian carcinoma), OVCAR-3 (human ovarian carcinoma), OVCAR-8 (human ovarian carcinoma), and HeLa (human cervical carcinoma) cell lines were cultured in Dulbecco’s Modified Eagle’s Medium (DMEM) (Gibco, Thermo Fischer Scientific) containing 10% (v/v) heat-inactivated fetal bovine serum (HIFBS) (Lonza-Cambrex, Karlskoga, Sweden), 2 mM L-glutamine (Lonza-Cambrex, Karlskoga, Sweden), 100 μg/mL streptomycin, and 100 IU/mL penicillin (Lonza-Cambrex) at 37 °C in humidified 95% air and 5% CO2. HT-29 (human colon carcinoma), IGROV-1 (human ovarian carcinoma), and A2780 (human ovarian carcinoma) cell lines were cultured in RPMI 1640 medium (Gibco, Thermo Fischer Scientific) supplemented with 10% HIFBS, 100 μg/mL streptomycin, and 100 IU/mL penicillin at 37 °C in humidified 95% air and 5% CO2 atmosphere. The presence of mycoplasma was routinely checked with MycoAlert kit (Lonza-Cambrex) and only mycoplasma-free cells were used in the experiments. Ovarian tumor cell lines were originally acquired from Dr Atanasio Pandiella from Centro de Investigación del Cáncer (CIC), Salamanca, Spain. HeLa, HT-29 and MCF7 tumor cell lines were provided by Dr Faustino Mollinedo from Centro de Investigaciones Biológicas Margarita Salas, Madrid, Spain.
MCF7, HeLa, and HT-29 cell proliferation, when treated with the corresponding compounds, were determined using the XTT (sodium 3’-[1(phenylaminocarbonyl)-3,4-tetrazolium]-bis(4-methoxy-6-nitro)-benzenesulfonic acid hydrate) cell proliferation kit (Roche Molecular Biochemicals, Mannheim, Germany). A freshly prepared mixture of XTT labeling reagent with 0.02% (v/v) PMS (N-methyl-dibenzopyrazine methyl sulfate) electron coupling reagent was added to cells (50 µL/well in 96-well plates, total volume of 160 µL/well). Cells were incubated under standard culture conditions for 4 h (MCF7 and HeLa) or 6 h (HT-29). The absorbance of the formazan product generated was measured at 450 nm using a multi-well plate reader. SKOV-3, OVCAR-3, OVCAR-8, IGROV-1, A-2780 cell proliferation, when treated with the corresponding compound, were determined using MTT (3-(4,5-dimethylthiazol-2-yl)-2,5-diphenyl-2H-tetrazolium bromide) (Sigma-Aldrich, St. Louis, MO, USA). MTT in Phosphate Buffer Saline (PBS) (5 mg/ml) was added to cells (110 µL/well in 24-well plates, total volume of 1110 µL/well). After 1 hour of incubation, the medium was aspirated, and formazan violet crystals were dissolved in dimethyl sulfoxide (DMSO) (500 µL/well). Absorbance was measured at 570 nm in a plate reader (Ultra Evolution, Tecan, Männedorf, Suiza). To determine cell viability, cells in exponential growth phase were seeded (100 µL/well in 96-well plates and 1000 µL/well in 24-well plates) with appropriate cell line concentration (1.5·10^4 cells/mL for MCF7 and HeLa, 3·10^4 cells/mL for HT-29, and 1·10^4 cells/mL for SKOV-3, OVCAR-3, OVCAR-8, IGROV-1, and A-2780) in complete RPMI 1640 or DMEM medium at 37°C and 5% CO2 atmosphere. After 24 h incubation, to allow cells to attach to the plates, all compounds were added at 1 µM concentration and the effect on the proliferation was evaluated 72 h post-treatment. […] Non-linear curves fitting the experimental data were carried out for each compound. Compounds were dissolved in DMSO and the final solvent concentrations never exceeded 0.5% (v/v). The control wells included […] with 0.5% (v/v) DMSO and the positive control. 10 µM verapamil was included as a control for the HT-29 cell line.

[2] = Aqueous solubility, saturation shake-flask method, UV absorbance; details: phosphate buffer, pH 7, aqueous buffer, thermodynamic from solid
Description: UV absorbance at three maximum absorbance wavelengths of selected compounds was measured after 48 h shaking and subsequent microfiltration.
The aqueous solubility of the sulfonamides was determined using an approach based on the saturation shake-flask method. Tested compounds (1–2 mg) were stirred in pH 7.0 phosphate buffer (300 µL) for 48 h at room temperature. The resulting suspension was filtered over a 45 µm filter to discard insoluble residues, and the concentration in the supernatant was measured by UV absorbance. To determine the concentration, a scan between 270 and 400 nm was performed in a Helios-α UV-320 Spectrophotometer (Thermo-Spectronic, Thermo Fischer Scientific, Waltham, MA, USA) for each tested compound. Then, three maximum wavelengths of absorbance per compound were selected from the previous scan and calibration curves were performed at these three wavelengths. Solubility results are given as the average of the three measurements.

[3] = HT-29, 72 h, XTT, without verapamil

Row | SMILES | IC50 [1, 3] [nM] | melting point [°C] | solubility at 48 h [2] [µg/mL] | IC50 ([1]; HT-29, 72 h) [nM]
1 | COc1ccc(/C=C\c2cc(OC)c(OC)c(OC)c2)cc1O [Combretastatin A-4, reference compound] | 305 |  |  | 
2 | COc1ccc(S(=O)(=O)N(CCBr)c2cc(OC)c(OC)c(OC)c2)cc1 [Compound 4] |  |  |  | 503
3 | COc1ccc(S(=O)(=O)Nc2cc(OC)c(OC)c(OC)c2[N+](=O)[O-])cc1 [Compound 11] | > 1000 |  | 88 (≈ 221 µM) | 
4 | COc1ccc(S(=O)(=O)Nc2cc(OC)c(OC)c(OC)c2N)cc1 [Compound 12] | > 1000 |  | 158 (≈ 429 µM) | 
5 | COc1ccc(S(=O)(=O)N(C)c2cc(OC)c(OC)c(OC)c2N)cc1 [Compound 13] | > 1000 |  |  | 
6 | COc1ccc(S(=O)(=O)Nc2cc(OC)c(OC)c(OC)c2NCN(c2cc(OC)c(OC)c(OC)c2N)S(=O)(=O)c2ccc(OC)cc2)cc1 [Compound 14] | > 1000 |  |  | 
7 | COc1ccc(S(=O)(=O)Nc2cc(OC)c(OC)c(OC)c2NC(C)=O)cc1 [Compound 15] | > 1000 |  | 230 (≈ 560 µM) | 
8 | COc1ccc(S(=O)(=O)N(C)c2cc(OC)c(OC)c(OC)c2NC(C)=O)cc1 [Compound 16] | > 1000 | 205 to 210 |  | 
9 | COc1ccc(S(=O)(=O)Nc2cc(OC)c(OC)c(OC)c2NC=O)cc1 [Compound 17] | > 1000 |  |  | 
10 | COc1ccc(S(=O)(=O)Nc2cc(OC)c(OC)c(OC)c2N(C)C)cc1 [Compound 18] | > 1000 |  |  | 
11 | COc1ccc(S(=O)(=O)N(C)c2cc(OC)c(OC)c(OC)c2N(C)C)cc1 [Compound 19] | > 1000 |  |  | 
12 | COc1ccc(S(=O)(=O)Nc2cc(OC)c(OC)c(OC)c2Br)cc1 [Compound 20] | > 1000 |  | 87 (≈ 201 µM) | 
13 | COc1ccc(S(=O)(=O)Nc2cc(OC)c(OC)c(OC)c2NC(=O)CNC(=O)OC(C)(C)C)cc1 [Compound 21] | > 1000 |  | 357 (≈ 679 µM) | 
14 | COc1ccc(S(=O)(=O)n2nnc3c(OC)c(OC)c(OC)cc32)cc1 [Compound 23] | > 1000 |  | 41 (≈ 108 µM) | 
15 | COc1ccc(S(=O)(=O)n2cnc3c(OC)c(OC)c(OC)cc32)cc1 [Compound 24] | > 1000 |  |  | 
16 | COc1cc(NS(=O)(=O)c2ccc([N+](=O)[O-])cc2)cc(OC)c1OC [Compound 25] | > 1000 | 138 to 140 |  | 
17 | COc1cc(NS(=O)(=O)c2ccc(N)cc2)cc(OC)c1OC [Compound 26] | > 1000 | 177 to 179 | 28 (≈ 82.7 µM) | 
18 | COc1cc(N(C)S(=O)(=O)c2ccc(N)cc2)cc(OC)c1OC [Compound 27] | > 1000 |  | 25 (≈ 70.9 µM) | 
19 | COc1cc(N(CC(=O)O)S(=O)(=O)c2ccc(N(C)C)cc2)cc(OC)c1OC [Compound 34] | > 1000 | 168 to 170 |  | 
20 | COc1cc(NS(=O)(=O)c2ccc(NC=O)cc2)cc(OC)c1OC [Compound 36] | > 1000 |  | 27 (≈ 73.7 µM) | 
21 | COc1ccc(S(=O)(=O)Nc2cc(OC)c(OC)c(OC)c2)cc1[N+](=O)[O-] [Compound 40] | > 1000 |  |  | 
22 | CCOC(=O)CNc1cc(S(=O)(=O)N(CC(=O)OCC)c2cc(OC)c(OC)c(OC)c2)ccc1OC [Compound 47] | > 1000 |  |  | 
23 | CNc1cc(S(=O)(=O)N(C)c2cc(OC)c(OC)c(OC)c2)ccc1OC [Compound 48a] | > 1000 |  |  | 
24 | COc1ccc(S(=O)(=O)N(C)c2cc(OC)c(OC)c(OC)c2)cc1N(C)C [Compound 48b] |  |  |  | > 1000

Continued, in another order:

Row | IC50 [1, 3] [nM] | melting point [°C] | solubility at 48 h [2] [µg/mL] | SMILES | IC50 ([1]; HT-29, 72 h) [nM]
25 | 897 | 115 to 116 | 83 (≈ 235 µM) | COc1ccc(S(=O)(=O)Nc2cc(OC)c(OC)c(OC)c2)cc1 [Compound 1a] | 
26 | > 1000 |  | 108 (≈ 206 µM) | COc1ccc(S(=O)(=O)N(c2cc(OC)c(OC)c(OC)c2)S(=O)(=O)c2ccc(OC)cc2)cc1 [Compound 1b] | 
27 | 143 | 123 to 124 | 27 (≈ 73.5 µM) | COc1ccc(S(=O)(=O)N(C)c2cc(OC)c(OC)c(OC)c2)cc1 [Compound 2a] | 
28 | 913 | 140 to 143 | 30 (≈ 78.6 µM) | CCN(c1cc(OC)c(OC)c(OC)c1)S(=O)(=O)c1ccc(OC)cc1 [Compound 3] | 
29 | 747 | 190 to 195 | 38 (≈ 96.1 µM) | COc1ccc(S(=O)(=O)N(C(C)=O)c2cc(OC)c(OC)c(OC)c2)cc1 [Compound 5] | 
30 | 230 |  | 33 (≈ 84.1 µM) | COc1ccc(S(=O)(=O)N(CC#N)c2cc(OC)c(OC)c(OC)c2)cc1 [Compound 6] | 
31 | 237 | 123 to 127 |  | CCOC(=O)CN(c1cc(OC)c(OC)c(OC)c1)S(=O)(=O)c1ccc(OC)cc1 [Compound 7] | 
32 | > 1000 | 151 to 158 |  | COc1ccc(S(=O)(=O)N(CC(=O)O)c2cc(OC)c(OC)c(OC)c2)cc1 [Compound 8] | 
33 | > 1000 |  |  | COc1ccc(S(=O)(=O)N(Cc2ccccc2)c2cc(OC)c(OC)c(OC)c2)cc1 [Compound 9] | 
34 | > 1000 |  |  | COc1ccc(S(=O)(=O)N(C(=O)OCc2ccccc2)c2cc(OC)c(OC)c(OC)c2)cc1 [Compound 10] | 
35 | 887 |  | 15 (≈ 40.9 µM) | COc1cc(NS(=O)(=O)c2ccc(N(C)C)cc2)cc(OC)c1OC [Compound 28] | 
36 | 103 | 134 to 140 | 7 (≈ 18.4 µM) | COc1cc(N(C)S(=O)(=O)c2ccc(N(C)C)cc2)cc(OC)c1OC [Compound 29a] | 
37 | 460 |  | 6 (≈ 15.2 µM) | CCN(c1cc(OC)c(OC)c(OC)c1)S(=O)(=O)c1ccc(N(C)C)cc1 [Compound 30] | 
38 | 140 |  | 18 (≈ 44.1 µM) | COc1cc(N(C(C)=O)S(=O)(=O)c2ccc(N(C)C)cc2)cc(OC)c1OC [Compound 31] | 
39 | 123 |  | 8 (≈ 19.7 µM) | COc1cc(N(CC#N)S(=O)(=O)c2ccc(N(C)C)cc2)cc(OC)c1OC [Compound 32] | 
40 | 863 |  |  | CCOC(=O)CN(c1cc(OC)c(OC)c(OC)c1)S(=O)(=O)c1ccc(N(C)C)cc1 [Compound 33] | 
41 | 165 |  |  | COc1cc(N(Cc2ccccc2)S(=O)(=O)c2ccc(N(C)C)cc2)cc(OC)c1OC [Compound 35a] | 
42 | 690 |  |  | COc1cc(N(C(=O)OCc2ccccc2)S(=O)(=O)c2ccc(N(C)C)cc2)cc(OC)c1OC [Compound 35b] | 
43 | 807 | 200 to 206 | 43 (≈ 122 µM) | CNc1ccc(S(=O)(=O)Nc2cc(OC)c(OC)c(OC)c2)cc1 [Compound 37] | 
44 | 277 |  | 89 (≈ 242 µM) | COc1ccc(S(=O)(=O)Nc2cc(OC)c(OC)c(OC)c2)cc1N [Compound 41] | 
45 | 63 |  | 58 (≈ 146 µM) | CCN(c1cc(OC)c(OC)c(OC)c1)S(=O)(=O)c1ccc(OC)c(N)c1 [Compound 43] | 
46 | 61 | 139 to 145 | 46 (≈ 113 µM) | COc1ccc(S(=O)(=O)N(CC#N)c2cc(OC)c(OC)c(OC)c2)cc1N [Compound 44] | 
47 | 113 |  |  | CCOC(=O)CNc1cc(S(=O)(=O)N(C)c2cc(OC)c(OC)c(OC)c2)ccc1OC [Compound 46] | 
